Among the data in patent publication US11530226B2, “Azepane inhibitors of menin-MLL interaction” (Janssen Pharmaceutica NV, priority 2016, dated 2022) are melting point and IC50 values, retold here.

Values joined by “and” are separate entries in the source; they are usually repeats but may differ in a detail not shown here. Identical values can stand only once. Counter-ions that a name gives are not always drawn.

The melting point is the temperature of the solid-liquid transition. One may read the IC50 as the midpoint of a concentration-inhibition curve.

Data set [1] concerns the target T1, terbium chelate-labeled menin / FITC-MBM1 peptide (Menin/MLL) (Homo sapiens, UniProt O00255, T541A).
T1 construct: Menin (a. a. l-610-6×his tag) was labeled with terbium cryptate as follows
T1 sequence (O00255 with tags, fused parts or gaps T541A): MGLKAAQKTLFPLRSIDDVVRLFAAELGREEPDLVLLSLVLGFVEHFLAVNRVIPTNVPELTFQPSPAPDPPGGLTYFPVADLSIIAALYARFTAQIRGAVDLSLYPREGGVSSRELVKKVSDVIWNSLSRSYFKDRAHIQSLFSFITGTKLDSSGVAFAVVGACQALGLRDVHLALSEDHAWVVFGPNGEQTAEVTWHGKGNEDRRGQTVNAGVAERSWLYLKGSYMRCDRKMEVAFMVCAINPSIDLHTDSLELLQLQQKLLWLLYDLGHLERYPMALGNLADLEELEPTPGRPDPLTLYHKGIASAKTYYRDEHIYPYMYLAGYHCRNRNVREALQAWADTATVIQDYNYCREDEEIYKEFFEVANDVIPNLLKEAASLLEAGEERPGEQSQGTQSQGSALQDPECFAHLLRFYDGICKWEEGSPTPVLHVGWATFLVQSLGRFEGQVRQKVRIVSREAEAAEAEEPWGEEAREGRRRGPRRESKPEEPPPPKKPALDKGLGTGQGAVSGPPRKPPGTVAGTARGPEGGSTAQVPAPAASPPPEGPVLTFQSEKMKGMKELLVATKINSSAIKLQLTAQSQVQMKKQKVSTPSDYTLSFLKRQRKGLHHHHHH
As to the kind of experiment: Menin/MLL homogenous time-resolved fluorescence (HTRF) assay. Format: binding. Particulars: read-out: (2) Menin HTRF assay (IC50 (nM)). Here is the method: 2) Menin/MLL Homogenous Time-Resolved Fluorescence (HTRF) Assay
To an untreated, white 384-well microtiter plate was added 40 nL 200× test compound in DMSO and 4 μL 2× terbium chelate-labeled menin (vide infra for preparation) in assay buffer (40 mM Tris .HCl, pH 7.5, 50 mM NaCl, 1 mM DTT and 0.05% Pluronic F-127). After incubation of test compound and terbium chelate-labeled menin for 5 min at ambient temperature, 4 μL 2×FITC-MBM1 peptide (FITC-P-alanine-SARWRFPARPGT-NH2) in assay buffer was added, the microtiter plate centrifuged at 1000 rpm for 1 min and the assay mixtures incubated for 15 min at ambient temperature. The relative amount of menin ⋅FITC-MBM1 complex present in an assay mixture is determined by measuring the homogenous time-resolved fluorescence (HTRF) of the terbium/FITC donor/acceptor fluorphore pair using a BMG Pherastar plate reader (ex. 337 nm/terbium cm. 490 nm/FITC cm. 520 nm) at ambient temperature. The degree of fluorescence resonance energy transfer (the HTRF value) is expressed as the ratio of the fluorescence emission intensities of the FITC and terbium fluorophores (P^m 520 nm//F^em 490 nm). The final concentrations of reagents in the binding assay are 100 pM terbium chelate-labeled menin, 75 nM FITC-MBM1 peptide and 0.5%) DMSO in assay buffer. Dose-response titrations of test compounds are conducted using an 11 point, three-fold serial dilution scheme, starting typically at 25 μM.
Compound potencies were determined by first calculating % inhibition at each compound concentration according to equation 1: % inhibition=((HC−LC)−(HTRF^compound−LC))/(HC−LC))*100 (Eqn 1)
Where LC and HC are the HTRF values of the assay in the presence or absence of a saturating concentration of a compound that competes with FITC-MBM1 for binding to menin, and HTRF^compound is the measured HTRF value in the presence of the test compound. HC and LC HTRF values represent an average of at least 16 replicates per plate.
Where Bottom and Top are the lower and upper asymptotes of the dose-response curve, respectively, IC50 is the concentration of compound that yields 50% inhibition of signal and h is the Hill coefficient.
Preparation of Terbium cryptate labeling of Menin: Menin (a. a. l-610-6×his tag) was labeled with terbium cryptate as follows. 2 mg of Menin was buffer exchanged into 1× phosphate buffered saline. 16 uM Menin was incubated with 4-fold molar excess NHS-terbium cryptate (Cisbio Bioassays, Bedford, Mass.) for 2 hours at room temperature. The labeled protein was purified away from free label by running the reaction over a Superdex 200 Increase 10/300 GL column at 0.75 ml/min. Peak fractions were collected, aliquoted and frozen at −80° C.

The subject of the next data set is MV-4-1 1 cells (MLL-AF4). Briefly: Proliferation assay (spheroid-like growth, 8 d, live-cell imaging), MV-4-11. Format: cell-based, human. The note with it: Homo sapiens, MV4-11, 192 h, MV-4-11 cells, absolute IC50 from AUC of confluence, read-out: (3) Spheroid assay MV-4-11 (IC50 (μM)). Here is the method:
The anti-proliferative effect of menin/MLL protein/protein interaction inhibitor test compounds was assessed in human leukemia cell lines. The cell lines MV-4-1 1 and MOLM14 harbor MEL translocations and express the MEL fusion proteins MLL-AF4 and MLL-AF9, respectively, as well as the wildtype protein from the second allele. […] K562 was used as a control cell line containing two MLL wildtype alleles in order to exclude compounds that display general cytotoxic effects.
MV-4-1 1 and MOLM14 were cultured in RPMI-1640 (Sigma Aldrich) supplemented with 10% fetal bovine serum (HyClone), 2 mM L-glutamine (Sigma Aldrich) and 50 μg/ml gentamycin (Gibco). K562 were propagated in RPMI-1640 (Sigma Aldrich) supplemented with 20% fetal bovine serum (HyClone), 2 mM L-glutamine (Sigma Aldrich) and 50 μg/ml gentamycin (Gibco).
In order to assess the anti-proliferative effects, 1,500 MV-4-1 1, 300 MOLM14 or 750 K562 cells were seeded in 200 μl media per well in 96-well round bottom, ultra-low attachment plates (Costar, catalogue number 7007). Cell seeding numbers were chosen based on growth curves to ensure linear growth throughout the experiment. Test compounds were added at different concentrations and the DMSO content was normalized to 0.3%>. Cells were incubated for 8d at 37° C. and 5% C02. Spheroid like growth was monitored in real-time by live-cell imaging (IncuCyteZOOM, Essenbio, 4× objective) acquiring one image every four hours for 8d. Confluence (%) as a measure of spheroid size was determined using an integrated analysis tool.
In order to determine the cumulative effect of the test compounds over time, the area under the curve (AUC) in a plot of confluence against time was calculated. Confluence at the beginning of the experiment (t=0) was used as baseline for the AUC calculation.
Absolute IC50 values were calculated according to the following procedure: % Control=(AUC sample/AUC control)*100 AUC control=mean AUC of control values(cells without compound/DMSO as vehicle control)
A non-linear curve fit was applied using the least squares (ordinary) fit method to the plot of % control versus compound concentration. Based on this, the absolute IC50 value (half maximal inhibitory concentration of the test compound causing an anti-proliferative effect of 50% relative to the vehicle control) was calculated.

As to `FC(F)(F)Cc1cc2c(N3CCC[C@@H](NCc4ccccc4)CC3)ncnc2s1` (as salt: HCl) [Compound 3, (R)N-benzyl-1-(6-(2,2,2-trifluoroethyl)thieno[2,3-d]pyrimidin-4-yl)azepan-4-amine], the melting point was found to be 130 °C.
`FC(F)(F)Cc1cc2c(N3CCC[C@H](NCc4ccccc4)CC3)ncnc2s1` (as salt: HCl) [Compound 4, (S)-N-benzyl-1-(6-(2,2,2-trifluoroethyl)thieno[2,3-d]pyrimidin-4-yl)azepan-4-amine]: the melting point worked out at 230 °C.
The molecule `Cc1ccc(CNC2CCCN(c3ncnc4sc(CC(F)(F)F)cc34)CC2)cc1` (stereo not drawn) (as salt: HCl) [Compound 16] showed a melting point of 262 to 264 °C.
Still for that read-out and setting: the result for `FC(F)CN[C@@H]1CCCN(c2ncnc3sc(CC(F)(F)F)cc23)CC1` (as salt: hydrochloride) [Compound 5] reads 244 °C; that for `O=C(NC1CCCN(c2ncnc3sc(CC(F)(F)F)cc23)CC1)C1CC2(CC2)CN1` (stereo not drawn) (as salt: hydrochloride) [Compound 10B], 205 °C; that for `FC(F)(F)Cc1cc2c(N3CCCC(NCC4CCOCC4)CC3)ncnc2s1` (stereo not drawn) (as salt: hydrochloride) [Compound 55], 110 °C.
`CN(C)CCCCN(Cc1cnn(C)c1)C1CCCN(c2ncnc3sc(CC(F)(F)F)cc23)CC1` (stereo not drawn) (as salt: hydrochloride) [Compound 61] yielded a melting point of 110 °C.
Molecule `CN(C)CCCNC1CCCN(c2ncnc3sc(CC(F)(F)F)cc23)CC1` (stereo not drawn) (as salt: hydrochloride) [Compound 62] returned a melting point of 130 °C.
Regarding `C[C@@H](N[C@@H]1CCCN(c2ncnc3sc(CC(F)(F)F)cc23)CC1)c1cnn(C)c1` (single isomer, unassigned) (as salt: HCl) [Compound 54A], the melting point was 160 °C.
As to `C[C@H](N[C@@H]1CCCN(c2ncnc3sc(CC(F)(F)F)cc23)CC1)c1cnn(C)c1` (single isomer, unassigned) (as salt: HCl) [Compound 54B], the melting point worked out at 160 °C.
`C[C@@H](N[C@H]1CCCN(c2ncnc3sc(CC(F)(F)F)cc23)CC1)c1cnn(C)c1` (single isomer, unassigned) (as salt: HCl) [Compound 54D] registered a melting point of 160 °C.
For `Fc1ccc(CN[C@@H]2CCCN(c3ncnc4sc(CC(F)(F)F)cc34)CC2)c(F)c1` (single isomer, unassigned) (as salt: hydrochloride) [Compound 7A], the melting point came to 176 °C.
`Fc1ccc(CN[C@H]2CCCN(c3ncnc4sc(CC(F)(F)F)cc34)CC2)c(F)c1` (single isomer, unassigned) (as salt: hydrochloride) [Compound 7B] had a melting point of 180 °C.
`Cc1ccc(CN[C@@H]2CCCN(c3ncnc4sc(CC(F)(F)F)cc34)CC2)c(C)c1` (single isomer, unassigned) (as salt: hydrochloride) [Compound 9A]: the melting point was determined as 156 °C.
In turn, `Cc1ccc(CN[C@H]2CCCN(c3ncnc4sc(CC(F)(F)F)cc34)CC2)c(C)c1` (single isomer, unassigned) (as salt: hydrochloride) [Compound 9B] yielded a melting point of 160 °C.
Molecule `CC(C)[C@H](N[C@H]1CCCN(c2ncnc3sc(CC(F)(F)F)cc23)CC1)C1CNC1` (single isomer, unassigned) (as salt: hydrochloride) [Compound 32] registered a melting point of 190 °C.
On the same count and under the same terms, with `CC(C)[C@H](NC1CCCN(c2ncnc3sc(CC(F)(F)F)cc23)CC1)C1CNC1` (single isomer, unassigned) (as salt: hydrochloride) [Compound 33] the figure was 200 °C; with `CC(C)[C@@H](NC1CCCN(c2ncnc3sc(CC(F)(F)F)cc23)CC1)C1CNC1` (single isomer, unassigned) (as salt: hydrochloride) [Compound 34], 188 °C.
For the molecule `CC(C)[C@@H](N[C@@H]1CCCN(c2ncnc3sc(CC(F)(F)F)cc23)CC1)C1CNC1` (single isomer, unassigned) (as salt: hydrochloride) [Compound 35], the melting point came to 193 °C.
Take `CC(C)[C@@H](N[C@H]1CCCN(c2ncnc3sc(CC(F)(F)F)cc23)CC1)C1CNC1` (single isomer, unassigned) (as salt: hydrochloride) [Compound 36]: the melting point turned out to be 208 °C.
In the case of `CN(C)CCN(Cc1ccccc1)[C@@H]1CCCN(c2ncnc3sc(CC(F)(F)F)cc23)CC1` (single isomer, unassigned) (as salt: hydrochloride) [Compound 57A], the melting point amounted to 150 °C.
On the same count and under the same terms, the result for `C[C@H]1CCN(c2ncnc3sc(CC(F)(F)F)cc23)CC[C@H]1NCc1ccccc1` (single isomer, unassigned) (as salt: hydrochloride) [Compound 68A] reads 134 °C and 136 °C.
On to `C[C@@H]1CCN(c2ncnc3sc(CC(F)(F)F)cc23)CC[C@@H]1NCc1ccccc1` (single isomer, unassigned) (as salt: hydrochloride) [Compound 68B], for which the melting point was 150 °C.
`FC(F)(F)Cc1cc2c(N3CCCC(N4Cc5ccccc5C4)CC3)ncnc2s1` (stereo not drawn) [Compound 6]: the melting point was 111 °C and 111.41 °C. Further, the IC50 in data set [1] was determined as 60 nM. In addition, in the data set on MV-4-1 1 cells (MLL-AF4), the IC50 is 2.2 µM.
`CC(C)NC1CCCN(c2ncnc3sc(CC(F)(F)F)cc23)CC1` (stereo not drawn) [Compound 12] registered a melting point of 94 °C. Moreover, the IC50 in data set [1] was found to be 5790 nM.
In turn, `FC(F)(F)Cc1cc2c(N3CCCC(Oc4ccccc4)CC3)ncnc2s1` (stereo not drawn) [Compound 15] registered a melting point of 110 °C. For the same molecule, in data set [1], the IC50 was determined as 606 nM.
